# Tested on: 519858-162-T-J1-PDC complex spheroid viability
# Test: Anticancer human tumor 519858-162-T-J1-PDC patient-derived colon adenocarcinoma cell line growth inhibition [GQUAD]
# Conditions: for IC50: curve of first compound; for viability, T/C: stronger effect = lower value
# Excerpt: DNA G-quadruplex Stabilizer Agents in Combinations in Complex Spheroids
# A high-throughput screen of multi-cell type tumor spheroids was designed to identify active combinations of DNA G-quadruplex stabilizer agents and targeted small molecules. Complex spheroids include a stromal component modeled by human endothelial cells (HUVEC) and fibroblasts modeled by human mesenchymal stem cells (MSCs). The concentration ranges selected for each drug and investigational agent were based upon clinically achievable concentrations if the clinical Cmax of the agent was known.
# Compounds. The drugs and investigational agents: pidnarulex (CX-5461; NSC782164), APTO-253 (NSC789042), BRACO-19 (NSC847499), peposertib (NSC802822), ceralasertib (NSC780249), elimusertib (NSC800525), camonsertib (NSC841442), AZD-1390 (NSC803789), olaparib (NSC753686), talazoparib (NSC767125), ART-558 (NSC835418), sotorasib (NSC818433), MRTX-1133 (NSC836407), SN-38 (NSC673596), topotecan (NSC609699), etoposide (NSC141540), doxorubicin (NSC123127), gemcitabine (NSC613327), 5-fluorouracil (NSC19893), paclitaxel (NSC125973), vemurafenib (NSC761431), panobinostat (NSC761190), R-306465 (JNJ-16241199; NSC773264), adavosertib (NSC754352), TP-3654 (NSC805149), carboplatin (NSC241240), KSQ-4279 (NSC840948), and staurosporine (NSC755774) were obtained from the National Cancer Institute (NCI) Developmental Therapeutics Program Chemical Repository (34). The FDA-approved anticancer drug set is available from the NCI Developmental Therapeutics Program. […] The stock solutions were prepared in dimethyl sulfoxide (DMSO, Sigma-Aldrich, St. Louis, MO, cat. D2650) at 800-fold the tested concentration and stored at -70 degrees C prior to their use. All drugs and investigational agents were tested over a range starting from a high concentration at or near the clinical Cmax and decreasing in half-log increments. If the clinical Cmax for an agent had not been determined, the highest concentration tested was 10 microM.
# 2.3 Cell Culture. All cells were maintained in an incubator at 37 degrees C and 5% CO2 with 95% humidity. The PDC lines were cultured according to standard operating procedures established by the NCI PDMR. All PDCs were thawed and cultured in Matrigel-coated flasks prepared with a working solution of 1X Ham's F-12 nutrient mix, without supplementation (Invitrogen, cat. 11765054), 100 U/mL penicillin-streptomycin (Invitrogen, cat. 15140122), and 2.5% Matrigel (Corning Inc., cat. 354248) for the first three passages. The 857933-349-R-J2-PDC line was cultured in 6C/Colon 1B media, which includes advanced DMEM/F-12 (Thermo Fisher Scientific, cat. 12634028), 10 mM HEPES (Thermo Fisher Scientific, cat. 15630080), 1X GlutaMAX supplement (Thermo Fisher Scientific, cat. 35050061), 0.1 mg/mL primocin (InvivoGen, cat. ant-pm-2), 10% defined fetal bovine serum, heat inactivated (HyClone Laboratories Inc., cat. SH30070.03HI), 50% L-WRN conditioned media (ATCC, cat. CRL-3276), 1.25 mM N-Acetyl-L-cysteine (Sigma-Aldrich, cat. A9165), 10 mM nicotinamide (Sigma-Aldrich, cat. N0636), 1X B-27 supplement (Thermo Fisher Scientific, cat. 17504044), 1X N-2 supplement (Thermo Fisher Scientific, cat. 17502048), 10 microM Y-27632 dihydrochloride (Tocris Bioscience, cat. 1254), and 50 ng/mL human EGF recombinant protein (Thermo Fisher Scientific, cat. PHG0311). The 485176-168-R4-J1-PDC line was cultured in Panc media, which includes all 6C/Colon 1B media components plus 100 ng/mL human FGF-10 (Thermo Fisher Scientific, cat. 100-26), 500 nM SB-431542 (Selleckchem, cat. S1067), and gastrin (Tocris, cat. 3006).
# […]
# [1] = second compound 0.0316 µM, first compound 0.000999 µM
# [2] = second compound 0.0316 µM, first compound 0.00316 µM
# [3] = second compound 0.0316 µM, first compound 0.00999 µM
# [4] = second compound 0.0316 µM, first compound 0.0316 µM
# [5] = second compound 0.0316 µM, first compound 0.0999 µM
# [6] = second compound 0.0316 µM, first compound 0.316 µM
# [7] = second compound 0.1 µM, first compound 0.000999 µM
# [8] = second compound 0.1 µM, first compound 0.00316 µM
# [9] = second compound 0.1 µM, first compound 0.00999 µM
# [10] = second compound 0.1 µM, first compound 0.0316 µM
# [11] = second compound 0.1 µM, first compound 0.0999 µM
# [12] = second compound 0.1 µM, first compound 0.316 µM
# [13] = second compound 0.316 µM, first compound 0.000999 µM
# [14] = second compound 0.316 µM, first compound 0.00316 µM
# [15] = second compound 0.316 µM, first compound 0.00999 µM
# [16] = second compound 0.316 µM, first compound 0.0316 µM
# [17] = second compound 0.316 µM, first compound 0.0999 µM
# [18] = second compound 0.316 µM, first compound 0.316 µM
# [19] = second compound 1 µM, first compound 0.000999 µM
# [20] = second compound 1 µM, first compound 0.00316 µM
# [21] = second compound 1 µM, first compound 0.00999 µM
# [22] = second compound 1 µM, first compound 0.0316 µM
# [23] = second compound 1 µM, first compound 0.0999 µM
# [24] = second compound 1 µM, first compound 0.316 µM
# [25] = second compound 3.16 µM, first compound 0.000999 µM
# [26] = second compound 3.16 µM, first compound 0.00316 µM
# [27] = second compound 3.16 µM, first compound 0.00999 µM
# [28] = second compound 3.16 µM, first compound 0.0316 µM
# [29] = second compound 3.16 µM, first compound 0.0999 µM
# [30] = second compound 3.16 µM, first compound 0.316 µM
# [31] = second compound 10 µM, first compound 0.000999 µM
# [32] = second compound 10 µM, first compound 0.00316 µM
# [33] = second compound 10 µM, first compound 0.00999 µM
# [34] = second compound 10 µM, first compound 0.0316 µM
# [35] = second compound 10 µM, first compound 0.0999 µM
# [36] = second compound 10 µM, first compound 0.316 µM
# 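Also: spheroids exposed to compounds for 7 days.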
# 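For viability, T/C in this document: 100% = DMSO vehicle control viability.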
smiles,measurement,setting,value
CCc1c2c(nc3ccc(O)cc13)-c1cc3c(c(=O)n1C2)COC(=O)[C@]3(O)CC + Cc1cnc(CNC(=O)c2c(=O)c3ccc(N4CCCN(C)CC4)nc3n3c2sc2ccccc23)cn1,IC50,second compound 0.0316 µM,> 316 nM
same,IC50,second compound 0.1 µM,> 316 nM
same,IC50,second compound 0.316 µM,> 316 nM
same,IC50,second compound 1 µM,> 316 nM
same,IC50,second compound 3.16 µM,< 0.999 nM
same,IC50,second compound 10 µM,< 0.999 nM
same,"viability, T/C",[1],121%
same,"viability, T/C",[2],57.5%
same,"viability, T/C",[3],81.9%
same,"viability, T/C",[4],67.6%
same,"viability, T/C",[5],74.8%
same,"viability, T/C",[6],64.7%
same,"viability, T/C",[7],67.5%
same,"viability, T/C",[8],105%
same,"viability, T/C",[9],89.3%
same,"viability, T/C",[10],55.3%
same,"viability, T/C",[11],61.1%
same,"viability, T/C",[12],48.2%
same,"viability, T/C",[13],95.1%
same,"viability, T/C",[14],94.8%
same,"viability, T/C",[15],66.2%
same,"viability, T/C",[16],67.2%
same,"viability, T/C",[17],65%
same,"viability, T/C",[18],69.1%
same,"viability, T/C",[19],66.6%
same,"viability, T/C",[20],42.9%
same,"viability, T/C",[21],72.2%
same,"viability, T/C",[22],55%
same,"viability, T/C",[23],75%
same,"viability, T/C",[24],80.4%
same,"viability, T/C",[25],35.9%
same,"viability, T/C",[26],48.5%
same,"viability, T/C",[27],47.8%
same,"viability, T/C",[28],47.6%
same,"viability, T/C",[29],52.8%
same,"viability, T/C",[30],55%
same,"viability, T/C",[31],42.9%
same,"viability, T/C",[32],38%
same,"viability, T/C",[33],62.9%
same,"viability, T/C",[34],47%
same,"viability, T/C",[35],50.3%
same,"viability, T/C",[36],52.1%
CCc1c2c(nc3ccc(O)cc13)-c1cc3c(c(=O)n1C2)COC(=O)[C@]3(O)CC + Cc1[nH]c2ccc(F)cc2c1-c1nc2c3cccnc3c3ncccc3c2[nH]1,IC50,second compound 0.0316 µM,> 316 nM
same,IC50,second compound 0.1 µM,> 316 nM
same,IC50,second compound 0.316 µM,> 316 nM
same,IC50,second compound 1 µM,> 316 nM
same,IC50,second compound 3.16 µM,> 316 nM
same,IC50,second compound 10 µM,< 0.999 nM
same,"viability, T/C",[1],124%
same,"viability, T/C",[2],86%
same,"viability, T/C",[3],70.5%
same,"viability, T/C",[4],86.6%
same,"viability, T/C",[5],56.6%
same,"viability, T/C",[6],62.8%
same,"viability, T/C",[7],85%
same,"viability, T/C",[8],96.9%
same,"viability, T/C",[9],63.7%
same,"viability, T/C",[10],63.2%
same,"viability, T/C",[11],84.2%
same,"viability, T/C",[12],52.9%
same,"viability, T/C",[13],99.9%
same,"viability, T/C",[14],105%
same,"viability, T/C",[15],60.8%
same,"viability, T/C",[16],53.9%
same,"viability, T/C",[17],63.4%
same,"viability, T/C",[18],59.4%
same,"viability, T/C",[19],89.8%
same,"viability, T/C",[20],75.2%
same,"viability, T/C",[21],78.2%
same,"viability, T/C",[22],83.6%
same,"viability, T/C",[23],54.6%
same,"viability, T/C",[24],62.8%
same,"viability, T/C",[25],68.5%
same,"viability, T/C",[26],53.3%
same,"viability, T/C",[27],47.8%
same,"viability, T/C",[28],61.1%
same,"viability, T/C",[29],80%
same,"viability, T/C",[30],49.9%
same,"viability, T/C",[31],39.9%
same,"viability, T/C",[32],50.2%
same,"viability, T/C",[33],69.7%
same,"viability, T/C",[34],56.6%
same,"viability, T/C",[35],74.5%
same,"viability, T/C",[36],76.2%

# Reference: PubChem BioAssay AID2060507 (Molecular Pharmacology Branch, DTP, NCI, 2025)
